Source: ChEMBL document CHEMBL1131740, “N-substituted 4-(5-indolyl)benzoic acids. Synthesis and evaluation of steroid 5alpha-reductase type I and II inhibitory activity” (Bioorg Med Chem Lett, 1999)
pIC50: −log10 of the molar value. Calls of active or inactive are those of the source. The rule behind the calls is not given here.

Assays:
[1] = molecular target: T1, 3-oxo-5-alpha-steroid 4-dehydrogenase 2 (Homo sapiens) (UniProt P31213); assay: Percentage inhibition against human Steroid 5-alpha-reductase type 2 at 10 uM concentration using 18213 3H testosterone 210 nM as substrate
T1 sequence (whole entry): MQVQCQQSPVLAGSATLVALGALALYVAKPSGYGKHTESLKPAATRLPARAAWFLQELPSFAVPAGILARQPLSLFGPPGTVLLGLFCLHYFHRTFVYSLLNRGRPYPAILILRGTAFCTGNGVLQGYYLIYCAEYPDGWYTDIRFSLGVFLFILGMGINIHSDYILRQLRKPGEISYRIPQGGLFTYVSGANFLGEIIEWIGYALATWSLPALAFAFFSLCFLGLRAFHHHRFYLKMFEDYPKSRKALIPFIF

[2] = molecular target: T2, 3-oxo-5-alpha-steroid 4-dehydrogenase 1 (Rattus norvegicus) (UniProt P24008); assay: Inhibition against rat Steroid 5-alpha-reductase type I at 10 uM concentration using 18213 3H testosterone 210 nM as substrate; No inhibition
T2 sequence (whole entry): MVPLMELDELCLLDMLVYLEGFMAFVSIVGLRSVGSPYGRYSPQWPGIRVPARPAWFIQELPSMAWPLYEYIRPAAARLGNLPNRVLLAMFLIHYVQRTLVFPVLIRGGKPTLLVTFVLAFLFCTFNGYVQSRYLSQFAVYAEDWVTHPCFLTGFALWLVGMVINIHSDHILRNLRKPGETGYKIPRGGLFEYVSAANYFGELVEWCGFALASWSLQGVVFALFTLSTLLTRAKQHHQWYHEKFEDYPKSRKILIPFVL

[3] = molecular target: T1, 3-oxo-5-alpha-steroid 4-dehydrogenase 2 (Homo sapiens); assay: Inhibition against human Steroid 5-alpha-reductase type 2 at 10 uM concentration using 18213 3H testosterone 210 nM as substrate
[4] = molecular target: T3, 3-oxo-5-alpha-steroid 4-dehydrogenase 1 (Homo sapiens) (UniProt P18405); assay: (§1) Inhibition against human Steroid 5-alpha-reductase type I in DU 145 cell culture at 10 uM concentration using 3H androstenedione 5 nM as substrate; assay type: cell-based
T3 sequence (whole entry): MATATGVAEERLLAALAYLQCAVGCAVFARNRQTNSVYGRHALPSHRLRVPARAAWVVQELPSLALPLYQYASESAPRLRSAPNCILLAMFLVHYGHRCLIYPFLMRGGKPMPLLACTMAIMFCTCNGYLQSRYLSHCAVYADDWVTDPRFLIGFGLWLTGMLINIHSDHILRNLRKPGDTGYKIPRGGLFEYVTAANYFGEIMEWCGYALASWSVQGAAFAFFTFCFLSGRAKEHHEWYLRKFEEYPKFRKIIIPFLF

[5] = molecular target: T2, 3-oxo-5-alpha-steroid 4-dehydrogenase 1 (Rattus norvegicus); assay: Inhibition against rat Steroid 5-alpha-reductase type I at 10 uM concentration using 18213 3H testosterone 210 nM as substrate
[6] = molecular target: T4, 3-oxo-5-alpha-steroid 4-dehydrogenase 1 (Homo sapiens, UniProt P18405); assay: Inhibitory concentration against human Steroid 5-alpha-reductase type I in DU 145 cell culture using 3H androstenedione 5 nM as substrate; assay type: cell-based
T4 sequence (P18405 whole entry): T3 sequence (whole entry)

[7] = molecular target: T5, 3-oxo-5-alpha-steroid 4-dehydrogenase 2 (Homo sapiens, UniProt P31213); assay: Inhibitory activity against human 5-alpha-reductase type 2 using 18213 3H testosterone 210 nM as substrate
T5 sequence (P31213 whole entry): T1 sequence (whole entry)

[8] = molecular target: T1, 3-oxo-5-alpha-steroid 4-dehydrogenase 2 (Homo sapiens); assay: Inhibition against human 5-alpha-reductase type 2 at 10 uM concentration using 18213 3H testosterone 210 nM as substrate
[9] = molecular target: T3, 3-oxo-5-alpha-steroid 4-dehydrogenase 1 (Homo sapiens); assay: as §1
[10] = molecular target: T5, 3-oxo-5-alpha-steroid 4-dehydrogenase 2; assay: Inhibitory activity against human Steroid 5-alpha-reductase type 2 using 18213 3H testosterone 210 nM as substrate
[11] = molecular target: T6, 3-oxo-5-alpha-steroid 4-dehydrogenase 1 (Rattus norvegicus, UniProt P24008); assay: Inhibitory activity against rat Steroid 5-alpha-reductase type I using 18213 3H testosterone 210 nM as substrate
T6 sequence (P24008 whole entry): T2 sequence (whole entry)

[12] = molecular target: T3, 3-oxo-5-alpha-steroid 4-dehydrogenase 1 (Homo sapiens); assay: Inhibition against human 5-alpha-reductase type 1 Steroid 5-alpha-reductase type I culture at 10 uM concentration using 3H androstenedione 5 nM as substrate
[13] = molecular target: T6, 3-oxo-5-alpha-steroid 4-dehydrogenase 1; assay: Inhibition against rat Steroid 5-alpha-reductase type I at 10 uM concentration using 18213 3H testosterone 210 nM as substrate: No inhibition

Structure (SMILES) | inhibition [3] | inhibition [4] | inhibition [5] | pIC50 [6] | other results
O=C(O)c1ccc(-c2ccc3c(ccn3C3CCCCC3)c2)cc1 | – | – | – | – | inhibition [1]: 36%; inhibition [2]: inactive
CCCCn1ccc2cc(-c3ccc(C(=O)O)cc3)ccc21 | 24% | 72% | 17% | – | –
O=C(O)c1ccc(-c2ccc3c(ccn3C(c3ccccc3)c3ccccc3)c2)cc1 | 40% | 81% | 26% | 5.56 | –
O=C(O)c1ccc(-c2ccc3c(ccn3Cc3ccccc3)c2)cc1 | – | – | 12% | – | pIC50 [7]: 5.21; inhibition [8]: 60%; inhibition [9]: 67%
CC(C)(C)NC(=O)[C@H]1CC[C@H]2[C@@H]3CC=C4C=C(C(=O)O)CC[C@]4(C)[C@H]3CC[C@]12C [EPRISTERIDE] | – | – | – | 5.96 | pIC50 [10]: 8.52; pIC50 [11]: 7.35
CCCC(CCC)n1ccc2cc(-c3ccc(C(=O)O)cc3)ccc21 | 10% | 75% | 43% | 5.49 | –
O=C(O)c1ccc(-c2ccc3c(ccn3CC3CCCCC3)c2)cc1 | – | – | – | 5.68 | inhibition [1]: 50%; inhibition [12]: 81%; IC50 [13]: Not Active
